Experimental data: patent US10239869B2, “Sulfonamide compounds as voltage-gated sodium channel modulators” (LUPIN LIMITED, priority 2015, dated 2019)
Where two headings read alike, the source gives them in different places.

What was measured:
[1] = target: Nav 1.5 (Homo sapiens (Human), UniProt Q14524); experiment: Inhibition of sodium channels, Red Membrane Potential Dye FLIPR assay, veratridine depolarization; type: cell-based; settings: HEK-293 cells overexpressing the channel
[2] = target: Nav 1.7 (Homo sapiens (Human), UniProt Q15858); experiment: as above; type: cell-based; settings: HEK-293 cells overexpressing the channel; for IC50: read-out: Nav1.7 IC50
[3] = read-out: Nav1.5 IC50 (bound given in μM)

Sequence of Nav 1.5 (Q14524 whole entry): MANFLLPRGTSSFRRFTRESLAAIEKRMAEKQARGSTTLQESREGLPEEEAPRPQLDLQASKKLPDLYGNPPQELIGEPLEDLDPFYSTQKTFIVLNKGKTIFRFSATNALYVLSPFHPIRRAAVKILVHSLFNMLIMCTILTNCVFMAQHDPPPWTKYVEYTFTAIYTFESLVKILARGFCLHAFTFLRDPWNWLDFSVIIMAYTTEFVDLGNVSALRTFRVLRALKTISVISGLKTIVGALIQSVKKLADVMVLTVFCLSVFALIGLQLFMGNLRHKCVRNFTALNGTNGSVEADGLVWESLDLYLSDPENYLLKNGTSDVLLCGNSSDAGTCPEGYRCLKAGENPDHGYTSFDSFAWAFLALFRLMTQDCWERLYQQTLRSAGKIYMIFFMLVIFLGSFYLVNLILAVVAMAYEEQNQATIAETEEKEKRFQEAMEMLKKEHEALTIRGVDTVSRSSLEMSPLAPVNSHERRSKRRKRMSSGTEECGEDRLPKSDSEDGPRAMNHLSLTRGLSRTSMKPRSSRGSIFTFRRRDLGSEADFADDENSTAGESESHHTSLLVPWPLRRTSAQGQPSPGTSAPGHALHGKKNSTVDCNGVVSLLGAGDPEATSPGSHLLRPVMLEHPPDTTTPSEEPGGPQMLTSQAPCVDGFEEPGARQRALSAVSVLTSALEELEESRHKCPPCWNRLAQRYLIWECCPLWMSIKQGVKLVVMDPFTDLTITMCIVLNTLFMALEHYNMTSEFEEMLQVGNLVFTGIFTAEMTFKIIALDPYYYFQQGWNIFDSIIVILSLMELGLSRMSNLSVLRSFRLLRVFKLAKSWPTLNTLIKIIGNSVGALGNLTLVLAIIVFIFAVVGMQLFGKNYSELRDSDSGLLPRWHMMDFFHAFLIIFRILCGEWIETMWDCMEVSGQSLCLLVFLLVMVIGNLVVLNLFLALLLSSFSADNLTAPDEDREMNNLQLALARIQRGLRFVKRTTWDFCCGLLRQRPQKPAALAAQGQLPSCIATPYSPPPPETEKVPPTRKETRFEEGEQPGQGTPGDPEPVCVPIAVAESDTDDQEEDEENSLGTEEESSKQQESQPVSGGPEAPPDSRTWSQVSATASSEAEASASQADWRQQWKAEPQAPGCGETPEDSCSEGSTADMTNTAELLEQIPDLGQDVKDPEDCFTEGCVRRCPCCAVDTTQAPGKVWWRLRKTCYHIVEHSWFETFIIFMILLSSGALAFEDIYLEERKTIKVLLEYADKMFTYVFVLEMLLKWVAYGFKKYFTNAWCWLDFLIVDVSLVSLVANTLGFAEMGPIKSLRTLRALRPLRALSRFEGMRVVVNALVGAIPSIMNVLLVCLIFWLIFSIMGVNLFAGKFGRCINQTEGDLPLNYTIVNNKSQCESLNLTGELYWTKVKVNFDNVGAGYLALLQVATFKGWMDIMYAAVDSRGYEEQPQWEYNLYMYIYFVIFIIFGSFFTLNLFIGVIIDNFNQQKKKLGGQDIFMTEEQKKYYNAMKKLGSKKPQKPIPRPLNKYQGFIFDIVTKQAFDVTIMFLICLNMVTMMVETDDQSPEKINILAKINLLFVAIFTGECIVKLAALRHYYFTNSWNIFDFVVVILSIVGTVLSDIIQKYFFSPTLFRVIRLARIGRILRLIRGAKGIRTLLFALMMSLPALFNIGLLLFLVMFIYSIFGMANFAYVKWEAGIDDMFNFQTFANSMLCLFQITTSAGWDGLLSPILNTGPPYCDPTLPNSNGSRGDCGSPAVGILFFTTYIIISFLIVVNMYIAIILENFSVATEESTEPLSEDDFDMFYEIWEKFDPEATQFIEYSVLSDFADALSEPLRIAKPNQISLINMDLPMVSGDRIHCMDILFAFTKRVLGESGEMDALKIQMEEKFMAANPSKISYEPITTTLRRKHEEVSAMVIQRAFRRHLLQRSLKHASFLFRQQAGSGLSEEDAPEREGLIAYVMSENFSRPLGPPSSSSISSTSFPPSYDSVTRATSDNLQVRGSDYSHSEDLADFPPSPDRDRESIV
Sequence of Nav 1.7 (Q15858 whole entry): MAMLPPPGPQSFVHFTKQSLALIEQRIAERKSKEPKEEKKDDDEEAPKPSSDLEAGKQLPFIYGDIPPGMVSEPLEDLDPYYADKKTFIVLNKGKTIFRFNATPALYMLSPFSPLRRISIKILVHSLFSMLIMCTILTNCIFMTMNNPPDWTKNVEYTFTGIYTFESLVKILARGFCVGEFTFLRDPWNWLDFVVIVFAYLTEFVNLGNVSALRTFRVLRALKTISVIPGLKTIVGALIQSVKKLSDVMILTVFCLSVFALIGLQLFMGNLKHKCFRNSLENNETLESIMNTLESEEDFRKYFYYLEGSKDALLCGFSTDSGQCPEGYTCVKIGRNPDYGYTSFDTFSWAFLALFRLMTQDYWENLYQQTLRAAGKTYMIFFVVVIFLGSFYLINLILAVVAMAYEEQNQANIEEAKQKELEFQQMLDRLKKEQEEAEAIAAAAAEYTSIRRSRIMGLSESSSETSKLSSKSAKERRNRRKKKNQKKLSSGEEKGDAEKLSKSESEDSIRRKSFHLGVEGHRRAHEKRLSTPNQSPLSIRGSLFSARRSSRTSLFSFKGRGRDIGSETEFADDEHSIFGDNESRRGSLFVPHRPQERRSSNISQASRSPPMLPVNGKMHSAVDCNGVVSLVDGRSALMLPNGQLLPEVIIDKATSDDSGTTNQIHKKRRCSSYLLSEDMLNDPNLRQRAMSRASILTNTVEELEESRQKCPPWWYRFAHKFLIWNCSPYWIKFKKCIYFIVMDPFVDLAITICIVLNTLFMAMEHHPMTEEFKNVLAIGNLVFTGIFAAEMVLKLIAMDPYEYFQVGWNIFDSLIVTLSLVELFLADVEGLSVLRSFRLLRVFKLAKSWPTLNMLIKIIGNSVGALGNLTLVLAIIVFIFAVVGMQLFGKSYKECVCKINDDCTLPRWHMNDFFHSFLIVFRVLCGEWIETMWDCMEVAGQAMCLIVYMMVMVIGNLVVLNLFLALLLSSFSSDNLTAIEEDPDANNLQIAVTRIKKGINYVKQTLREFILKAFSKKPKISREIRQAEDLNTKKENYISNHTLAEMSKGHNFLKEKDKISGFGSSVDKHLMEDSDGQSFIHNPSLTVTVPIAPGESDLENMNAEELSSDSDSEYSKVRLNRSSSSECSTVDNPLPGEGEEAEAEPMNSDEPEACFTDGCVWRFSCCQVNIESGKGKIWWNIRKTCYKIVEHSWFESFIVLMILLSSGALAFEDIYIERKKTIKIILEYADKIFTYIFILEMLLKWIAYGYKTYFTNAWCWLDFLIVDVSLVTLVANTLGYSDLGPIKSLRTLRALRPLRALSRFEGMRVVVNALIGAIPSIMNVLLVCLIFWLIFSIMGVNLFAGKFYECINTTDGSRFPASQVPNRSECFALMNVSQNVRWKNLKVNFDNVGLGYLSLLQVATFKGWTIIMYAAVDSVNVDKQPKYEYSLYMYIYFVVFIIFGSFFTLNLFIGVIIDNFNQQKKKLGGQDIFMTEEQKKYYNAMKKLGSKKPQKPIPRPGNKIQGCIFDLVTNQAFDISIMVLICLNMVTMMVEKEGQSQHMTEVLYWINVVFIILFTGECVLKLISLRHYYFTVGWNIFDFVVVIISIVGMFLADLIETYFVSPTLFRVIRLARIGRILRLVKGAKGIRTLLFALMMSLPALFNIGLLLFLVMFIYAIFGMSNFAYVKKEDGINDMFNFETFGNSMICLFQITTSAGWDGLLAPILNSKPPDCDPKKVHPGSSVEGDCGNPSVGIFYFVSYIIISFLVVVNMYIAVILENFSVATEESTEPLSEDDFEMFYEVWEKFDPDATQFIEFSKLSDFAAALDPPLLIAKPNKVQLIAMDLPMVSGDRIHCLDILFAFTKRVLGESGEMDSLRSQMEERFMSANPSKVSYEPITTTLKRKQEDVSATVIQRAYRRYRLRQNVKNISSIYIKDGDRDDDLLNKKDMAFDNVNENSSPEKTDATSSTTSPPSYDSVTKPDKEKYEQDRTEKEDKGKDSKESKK

| SMILES | IC50 [1, 3] [µM] | IC50 [2] [nM] | Nav1.5 % inhibition @ 10 μM [1] [%] | Nav1.7 inhibition @ 10 μM [2] [%] | IC50 ([1]; read-out: Nav1.5 IC50) [µM] |
| --- | --- | --- | --- | --- | --- |
| Cc1nc(-c2cc(C(F)(F)F)ccc2[C@H]2CCOc3cc(S(=O)(=O)Nc4ncccn4)ccc32)cs1 [Example 64, (S&R)-4-(2-(2-Methylthiazol-4-yl)-4-(trifluoromethyl)phenyl)-N-(pyrimidin-2-yl)chroman-7-sulfonamide] | > 10 | 3 |  |  |  |
| Cc1nc(-c2cc(C(F)(F)F)ccc2[C@@H]2CCOc3cc(S(=O)(=O)Nc4ccncn4)ccc32)cs1 [Example 67, (S&R)-4-(2-(2-Methylthiazol-4-yl)-4-(trifluoromethyl)phenyl)-N-(pyrimidin-4-yl)chroman-7-sulfonamide] | > 10 | 30 |  |  |  |
| Cc1nc(-c2cc(C(F)(F)F)ccc2[C@H]2CCOc3cc(S(=O)(=O)Nc4ccncn4)ccc32)cs1 [Example 68, (S&R)-4-(2-(2-Methylthiazol-4-yl)-4-(trifluoromethyl)phenyl)-N-(pyrimidin-4-yl)chroman-7-sulfonamide] |  | 0.9 | 29 |  |  |
| Cc1nc(-c2cc(C(F)(F)F)ccc2[C@H]2CCOc3cc(S(=O)(=O)Nc4cccnn4)ccc32)cs1 [Example 70, (S&R)-4-(2-(2-Methylthiazol-4-yl)-4-(trifluoromethyl)phenyl)-N-(pyridazin-3-yl)chroman-7-sulfonamide] | > 10 | 115 |  |  |  |
| Cc1nc(-c2cc(C(F)(F)F)ccc2[C@@H]2CCOc3cc(S(=O)(=O)Nc4cccnn4)ccc32)co1 [Example 79, (S&R)-4-(2-(2-methyloxazol-4-yl)-4-(trifluoromethyl)phenyl)-N-(pyridazin-3-yl)chroman-7-sulfonamide] | > 10 | 2520 |  |  |  |
| Cc1nc(-c2cc(C(F)(F)F)ccc2[C@H]2CCOc3cc(S(=O)(=O)Nc4cccnn4)ccc32)co1 [Example 80, (S&R)-4-(2-(2-methyloxazol-4-yl)-4-(trifluoromethyl)phenyl)-N-(pyridazin-3-yl)chroman-7-sulfonamide] |  | 114 | 53 |  |  |
| CS(=O)(=O)CCc1cc(C(F)(F)F)ccc1[C@@H]1CCOc2cc(S(=O)(=O)Nc3cccc(F)n3)ccc21 [Example 81, (S&R)—N-(6-Fluoropyridin-2-yl)-4-(2-(2-(methylsulfonyl)ethyl)-4-(trifluoromethyl)phenyl)chroman-7-sulfonamide] |  | 993 | 34 |  |  |
| CS(=O)(=O)CCc1cc(C(F)(F)F)ccc1[C@H]1CCOc2cc(S(=O)(=O)Nc3cccc(F)n3)ccc21 [Example 82, (S&R)—N-(6-Fluoropyridin-2-yl)-4-(2-(2-(methylsulfonyl)ethyl)-4-(trifluoromethyl)phenyl)chroman-7-sulfonamide] | > 10 | 20 |  |  |  |
| CS(=O)(=O)CCc1cc(C(F)(F)F)ccc1[C@@H]1CCOc2cc(S(=O)(=O)Nc3ncccn3)ccc21 [Example 83, (S&R)-4-(2-(2-(Methylsulfonyl)ethyl)-4-(trifluoromethyl)phenyl)-N-(pyrimidin-2-yl)chroman-7-sulfonamide] | > 10 |  |  | 71 |  |
| CS(=O)(=O)CCc1cc(C(F)(F)F)ccc1[C@H]1CCOc2cc(S(=O)(=O)Nc3ncccn3)ccc21 [Example 84, (S&R)-4-(2-(2-(Methylsulfonyl)ethyl)-4-(trifluoromethyl)phenyl)-N-(pyrimidin-2-yl)chroman-7-sulfonamide] | > 10 | 2580 |  |  |  |
| CS(=O)(=O)CCc1cc(C(F)(F)F)ccc1[C@@H]1CCOc2cc(S(=O)(=O)Nc3ncc(F)cn3)ccc21 [Example 85, (S&R)—N-(5-Fluoropyrimidin-2-yl)-4-(2-(2-(methylsulfonyl)ethyl)-4-(trifluoromethyl)phenyl)chroman-7-sulfonamide] | > 10 | 2720 |  |  |  |
| CS(=O)(=O)CCc1cc(C(F)(F)F)ccc1[C@H]1CCOc2cc(S(=O)(=O)Nc3ncc(F)cn3)ccc21 [Example 86, (S&R)—N-(5-Fluoropyrimidin-2-yl)-4-(2-(2-(methylsulfonyl)ethyl)-4-(trifluoromethyl)phenyl)chroman-7-sulfonamide] | > 10 | 2390 |  |  |  |
| CS(=O)(=O)CCc1cc(C(F)(F)F)ccc1[C@@H]1CCOc2cc(S(=O)(=O)Nc3ccncn3)ccc21 [Example 87, (S&R)-4-(2-(2-(Methylsulfonyl)ethyl)-4-(trifluoromethyl)phenyl)-N-(pyrimidin-4-yl) chroman-7-sulfonamide] | > 10 |  |  | 58 |  |
| CS(=O)(=O)CCc1cc(C(F)(F)F)ccc1[C@H]1CCOc2cc(S(=O)(=O)Nc3ccncn3)ccc21 [Example 88, (S&R)-4-(2-(2-(Methylsulfonyl)ethyl)-4-(trifluoromethyl)phenyl)-N-(pyrimidin-4-yl) chroman-7-sulfonamide] | > 10 | 626 |  |  |  |
| O=S(=O)(Nc1cccc(F)n1)c1ccc2c(c1)OCC[C@H]2c1ccc(C(F)(F)F)cc1-n1cccn1 [Example 89, (S&R)-4-(2-(1H-pyrazol-1-yl)-4-(trifluoromethyl)phenyl)-N-(6-fluoropyridin-2-yl)chroman-7-sulfonamide] | > 10 | 108 |  |  |  |
| O=S(=O)(Nc1cccc(F)n1)c1ccc2c(c1)OCC[C@@H]2c1ccc(C(F)(F)F)cc1-n1cccn1 [Example 90, (S&R)-4-(2-(1H-pyrazol-1-yl)-4-(trifluoromethyl)phenyl)-N-(6-fluoropyridin-2-yl)chroman-7-sulfonamide] | > 10 | 15 |  |  |  |
| CC(C)Oc1ccc(-c2cc(C(F)(F)F)ccc2[C@@H]2CCOc3cc(S(=O)(=O)Nc4ncccn4)ccc32)cn1 [Example 97, (S&R)-4-(2-(6-isopropoxypyridin-3-yl)-4-(trifluoromethyl)phenyl)-N-(pyrimidin-2-yl)chroman-7-sulfonamide] |  | 170 | 71 |  |  |
| CC(C)Oc1ccc(-c2cc(C(F)(F)F)ccc2[C@H]2CCOc3cc(S(=O)(=O)Nc4ncccn4)ccc32)cn1 [Example 98, (S&R)-4-(2-(6-isopropoxypyridin-3-yl)-4-(trifluoromethyl)phenyl)-N-(pyrimidin-2-yl)chroman-7-sulfonamide] |  | 11 |  |  | 0.432 |
| CC(C)Oc1ccc(-c2cc(C(F)(F)F)ccc2[C@@H]2CCOc3cc(S(=O)(=O)Nc4ncc(F)cn4)ccc32)cn1 [Example 99, (S&R)—N-(5-fluoropyrimidin-2-yl)-4-(2-(6-isopropoxypyridin-3-yl)-4-(trifluoromethyl)phenyl)chroman-7-sulfonamide] |  | 1060 | 80 |  |  |
| CC(C)Oc1ccc(-c2cc(C(F)(F)F)ccc2[C@H]2CCOc3cc(S(=O)(=O)Nc4ncc(F)cn4)ccc32)cn1 [Example 100, (S&R)—N-(5-fluoropyrimidin-2-yl)-4-(2-(6-isopropoxypyridin-3-yl)-4-(trifluoromethyl)phenyl)chroman-7-sulfonamide] | > 10 | 75 |  |  |  |
| CCOc1ccc(-c2cc(C(F)(F)F)ccc2[C@@H]2CCOc3cc(S(=O)(=O)Nc4ncc(F)cn4)ccc32)cn1 [Example 101, (S&R)-4-(2-(6-ethoxypyridin-3-yl)-4-(trifluoromethyl)phenyl)-N-(5-fluoropyrimidin-2-yl)chroman-7-sulfonamide] |  | 2590 | 51 |  |  |
| CCOc1ccc(-c2cc(C(F)(F)F)ccc2[C@H]2CCOc3cc(S(=O)(=O)Nc4ncc(F)cn4)ccc32)cn1 [Example 102, (S&R)-4-(2-(6-ethoxypyridin-3-yl)-4-(trifluoromethyl)phenyl)-N-(5-fluoropyrimidin-2-yl)chroman-7-sulfonamide] | > 10 | 39 |  |  |  |
| O=S(=O)(Nc1ncccn1)c1ccc2c(c1)OCC[C@H]2c1ccc(C(F)(F)F)cc1C1CCOCC1 [Example 109, (S&R)—N-(pyrimidin-2-yl)-4-(2-(tetrahydro-2H-pyran-4-yl)-4-(trifluoromethyl)phenyl)chroman-7-sulfonamide] | > 10 | 740 |  |  |  |
| O=S(=O)(Nc1ncccn1)c1ccc2c(c1)OCC[C@@H]2c1ccc(C(F)(F)F)cc1C1CCOCC1 [Example 110, (S&R)—N-(pyrimidin-2-yl)-4-(2-(tetrahydro-2H-pyran-4-yl)-4-(trifluoromethyl)phenyl)chroman-7-sulfonamide] |  | 156 |  |  | 1.75 |
| O=C1CCCN1c1cc(C(F)(F)F)ccc1[C@@H]1CCOc2cc(S(=O)(=O)Nc3cccc(F)n3)ccc21 [Example 111, (S&R)—N-(6-Fluoropyridin-2-yl)-4-(2-(2-oxopyrrolidin-1-yl)-4-(trifluoromethyl)phenyl)chroman-7-sulfonamide] |  | 814 | 67 |  |  |
| O=C1CCCN1c1cc(C(F)(F)F)ccc1[C@H]1CCOc2cc(S(=O)(=O)Nc3cccc(F)n3)ccc21 [Example 112, (S&R)—N-(6-Fluoropyridin-2-yl)-4-(2-(2-oxopyrrolidin-1-yl)-4-(trifluoromethyl)phenyl)chroman-7-sulfonamide] |  | 801 | 65 |  |  |
| O=C1CCCN1c1cc(C(F)(F)F)ccc1[C@@H]1CCOc2cc(S(=O)(=O)Nc3ncc(F)cn3)ccc21 [Example 113, (S&R)—N-(5-fluoropyrimidin-2-yl)-4-(2-(2-oxopyrrolidin-1-yl)-4-(trifluoromethyl)phenyl)chroman-7-sulfonamide] | > 10 |  |  | 65 |  |
| O=C1CCCN1c1cc(C(F)(F)F)ccc1[C@H]1CCOc2cc(S(=O)(=O)Nc3ncc(F)cn3)ccc21 [Example 114, (S&R)—N-(5-fluoropyrimidin-2-yl)-4-(2-(2-oxopyrrolidin-1-yl)-4-(trifluoromethyl)phenyl)chroman-7-sulfonamide] | > 10 | 624 |  |  |  |
| COCCOc1cc(C(F)(F)F)ccc1[C@@H]1CCOc2cc(S(=O)(=O)Nc3ncccn3)ccc21 [Example 124, (S&R)-4-(2-(2-methoxyethoxy)-4-(trifluoromethyl)phenyl)-N-(pyrimidin-2-yl)chroman-7-sulfonamide] |  | 2230 | 71 |  |  |
